Where “and” joins values, the source holds several entries; their conditions need not be identical. Equal values may be shown once.
What was measured:
[1] = test system: Influenza A/Vietnam/1203/2004 (H5N1); assay type: cell-based, influenza A virus; conditions: 72 h
[2] = test system: influenza A/Brisbane/59/2007 (H1N1) virus; assay type: cell-based

## O=S(=O)(O)c1cc(O)c(N=Nc2ccc3cccc(S(=O)(=O)O)c3c2O)c2ccccc12 [SR 22859]
[1]
  SI values (SI = IC50/EC50) of screening hits: > 13.8

## O=C(Nc1c(-c2ccccc2)nc2sccn12)c1ccccc1 [compound 786409]
[1]
  SI values (SI = IC50/EC50) of screening hits: > 94.6

## CN(C)c1cccc(C(=O)Nc2ccc3nc4n(c(=O)c3c2)CCCCC4)c1 [compound 9551353]
[1]
  SI values (SI = IC50/EC50) of screening hits: > 3.5

## NC(=O)c1ncn([C@@H]2O[C@H](CO)[C@@H](O)[C@H]2O)n1 [ribavirin]
[2]
  Reduction in M1 RNA levels vs no-drug infected MDCK cells: 1.3 fold and 1.9 fold

Source: PMC10812132 (Journal of biomolecular screening, 2010)
